These results are taken from paper PMC3172300, “Modulation of Catalytic Activity in Multi-Domain Protein Tyrosine Phosphatases” (PLoS ONE, 2011).

Where two headings read alike, the source gives them in different places. Square brackets hold non-standard residues; d marks the D form. Ends that are not written are not given here. Peptide text beside a SMILES is read from it. pY = N[C@@H](Cc1ccc(OP(=O)(O)O)cc1)C(=O)O

Common to all, as to assay type: biochemical
One experiment deals with T1, DLAR D1 (Drosophila melanogaster, UniProt P16621).
T1 construct: DLAR 1448-1746; His tag (pET-15b or pET-22b); made in house; host or cells: E. coli BL21(DE3)
T1 sequence (P16621 1448-1746): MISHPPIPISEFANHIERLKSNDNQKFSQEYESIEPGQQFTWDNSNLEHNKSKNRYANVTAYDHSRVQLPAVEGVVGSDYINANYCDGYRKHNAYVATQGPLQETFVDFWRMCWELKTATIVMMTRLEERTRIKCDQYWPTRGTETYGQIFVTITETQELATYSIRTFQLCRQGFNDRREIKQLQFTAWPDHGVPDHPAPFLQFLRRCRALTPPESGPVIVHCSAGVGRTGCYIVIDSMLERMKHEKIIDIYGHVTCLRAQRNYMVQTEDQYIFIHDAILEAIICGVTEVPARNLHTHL
Put plainly: Dephosphorylation of phosphotyrosine peptides (malachite green), DLAR D1. Conditions: for Km / Vmax / Kcat / Kcat/Km: 0.01 µM protein; for Km / Kcat / Kcat/Km: 25 mM citrate pH 6.0, 15 min at 25°C, malachite green; for Vmax: 25 mM citrate buffer pH 6.0, 100 mM NaCl, 2 mM DTT, 15 min at 25°C, Biomol Green, 650 nm, Michaelis-Menten fit; for peptide preference: order of peptide substrates, DLAR D1 domain. The source says:
Substrates of PTPs characterized thus far include the activation loop segments of various kinases and regulatory loops of other signaling proteins. Suitably designed peptide substrates mimic the physiologically relevant substrates of PTPs. In the present study, peptide substrates were designed for DLAR for which more information was available on its interacting partners. […] The five peptides were chosen based on their distinct charge distributions around the central phosphotyrosine residue. The phosphorylated as well as non-phosphorylated peptides were obtained from GL Bioscience, China. The peptides were >95% pure and were used after a single round of desalting using a Sephadex G25 column (GE Healthcare). The concentration of the peptide samples for biochemical studies was ascertained by UV absorption at 268 nm for the pY residue.
(§1) Phosphatase activity of the recombinant PTP domains was determined by using para-Nitrophenylphosphate (pNPP), a small molecule generic substrate, as well as phosphotyrosine containing peptides. The pNPP assay was performed as reported previously, with a modification in the buffer composition (25 mM Citrate, Glycine and HEPES (CGH), pH 6.5, 100 mM NaCl and 2 mM DTT). Phosphatase activity with the phosphotyrosine peptides was ascertained by the malachite green reaction as described for PTPs previously. Briefly, the reaction mixture comprised of 0.01 µM protein incubated with increasing concentrations of different peptides in 25 mM citrate buffer pH 6.0, 100 mM NaCl and 2 mM DTT for 15 min at 25°C. The reaction was stopped by the addition of the Biomol Green reagent (Enzo Life Sciences) and the colour developed after 20 min was quantified at 650 nm. For all the assays, kinetic constants for the steady state catalysis were obtained by fitting the reaction curves to the Michaelis-Menten equation using the nonlinear regression module of Sigma plot software (Systat Software, Inc.).

For another experiment, the target named is T2, DLAR D2 (Drosophila melanogaster, UniProt P16621).
T2 construct: DLAR 1728-2029; His tag (pET-15b or pET-22b); made in house; host or cells: E. coli BL21(DE3)
T2 sequence (P16621 1728-2029): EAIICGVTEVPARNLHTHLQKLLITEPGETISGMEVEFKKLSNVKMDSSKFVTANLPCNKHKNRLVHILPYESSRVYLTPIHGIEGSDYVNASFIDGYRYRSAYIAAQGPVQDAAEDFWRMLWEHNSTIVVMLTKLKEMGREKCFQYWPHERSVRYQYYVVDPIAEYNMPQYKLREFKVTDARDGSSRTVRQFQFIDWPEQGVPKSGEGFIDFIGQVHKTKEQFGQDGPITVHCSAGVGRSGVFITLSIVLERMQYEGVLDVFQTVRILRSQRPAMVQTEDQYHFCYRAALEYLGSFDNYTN
The experiment can be described thus: Peptide preference of the DLAR D2 domain from ratios of kcat/Km (D1D2 vs D1). Conditions: order of peptide substrates, from comparison of kcat/Km of D1D2 with D1. As for the experimental part: as §1
(§2) The difference between the most and least preferred substrate in the case of DLAR D1D2 was much less (∼16.0×10^4 sec^−1 M^−1 between Cuticle and Myospheroid peptides) when compared to DLAR D1 alone (∼130.0×10^4 sec^−1 M^−1 between Insulin Receptor and Abelson peptides). […] A more comprehensive study of this activation mechanism is being reported elsewhere.

A further experiment has as its target T3, PTP99A D2 (Drosophila melanogaster, UniProt P35832).
T3 sequence (P35832 740-1050): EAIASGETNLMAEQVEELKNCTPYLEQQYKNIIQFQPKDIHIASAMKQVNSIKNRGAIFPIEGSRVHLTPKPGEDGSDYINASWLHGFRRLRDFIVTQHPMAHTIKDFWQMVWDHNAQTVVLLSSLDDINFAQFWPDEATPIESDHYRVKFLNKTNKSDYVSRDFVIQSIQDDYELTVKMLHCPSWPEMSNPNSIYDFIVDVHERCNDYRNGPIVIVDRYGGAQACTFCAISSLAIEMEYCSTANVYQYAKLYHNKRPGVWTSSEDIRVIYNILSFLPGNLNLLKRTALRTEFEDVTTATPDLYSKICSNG
Put plainly: Peptide preference of the PTP99A D2 domain from ratios of kcat/Km (D1D2 vs D1). The conditions noted are these: order of peptide substrates, from comparison of kcat/Km of D1D2 with D1. As for the experimental part: as §1, §2

On to `CC(C)C[C@H](NC(=O)[C@H](C)NC(=O)CNC(=O)[C@H](Cc1ccc(OP(=O)(O)O)cc1)NC(=O)[C@H](CC(=O)O)NC(=O)[C@@H]1CCCN1C(=O)[C@H](CCC(=O)O)NC(=O)[C@H](C)NC(=O)[C@@H](N)[C@@H](C)O)C(=O)N[C@@H](Cc1ccc(O)cc1)C(=O)N[C@@H](CCC(=O)O)C(=O)O` [Cuticle peptide] (H-TAEPD[pY]GALYE-OH), for which the Michaelis constant (Km) (commonly the substrate concentration at which the rate is half of its maximum) on DLAR D1 amounted to 56.5 ± 4.64 µM.

Regarding “CDDS[pY]FGNKC (cysteine pairing not given here) [Myospheroid peptide, phosphotyrosine peptide CDDSpYFGNKC from PeptideMine server, obtained from GL Bioscience, >95% pure]”, at DLAR D1, the Vmax (as a rule, the rate approached at saturating substrate) came to 29.58 ± 0.84 µmol/min/mg; the Kcat is 23.66 ± 0.67 s⁻¹; the Kcat/Km is 30.14 ± 0.06 x 10^4 sec^-1M^-1; the peptide preference entry was “Insulin receptor peptide>Cuticle peptide>Nervous fingers peptide>Myospheroid peptide>Abelson peptide”. In addition, the Km on DLAR D1 (read-out: Km) turned out to be 78.5 ± 6.67 µM. Moreover, the peptide preference result at DLAR D2 is given as “Insulin Receptor peptide>Nervous fingers peptide>Cuticle peptide>Myospheroid peptide>Abelson peptide”. Also, the peptide preference entry at PTP99A D2 was “Nervous fingers peptide>Abelson peptide>Cuticle peptide>Myospheroid peptide>Insulin receptor peptide”.

Consider “RDDT[pY]TAHAG [Abelson peptide, phosphotyrosine peptide RDDTpYTAHAG from PeptideMine server, obtained from GL Bioscience, >95% pure]”, for which, on DLAR D1, the Vmax is 4.95 ± 0.59 µmol/min/mg, the Kcat was determined as 3.96 ± 0.68 s⁻¹, the Kcat/Km is on record as 21.77 ± 0.32 x 10^4 sec^-1M^-1 and the peptide preference entry is listed as “Insulin receptor peptide>Cuticle peptide>Nervous fingers peptide>Myospheroid peptide>Abelson peptide”. In addition, at DLAR D1 (read-out: Km), the Km was 18.2 ± 8.98 µM. Besides, the peptide preference entry on DLAR D2 is reported as “Insulin Receptor peptide>Nervous fingers peptide>Cuticle peptide>Myospheroid peptide>Abelson peptide”. In addition, on PTP99A D2, the peptide preference result was “Nervous fingers peptide>Abelson peptide>Cuticle peptide>Myospheroid peptide>Insulin receptor peptide”.

Regarding “VIGD[pY]VCRLCK (cysteine pairing not given here) [Nervous Fingers peptide, phosphotyrosine peptide VIGDpYVCRLCK from PeptideMine server, obtained from GL Bioscience, >95% pure]”, at DLAR D1, the Vmax stood at 37.5 ± 1.4 µmol/min/mg, the Kcat came to 30 ± 1.12 s⁻¹, the Kcat/Km is listed as 78.51 ± 0.09 x 10^4 sec^-1M^-1 and the peptide preference entry was “Insulin receptor peptide>Cuticle peptide>Nervous fingers peptide>Myospheroid peptide>Abelson peptide”. Also, the Km at DLAR D1 (read-out: Km) came out at 38.2 ± 5.05 µM. The peptide preference result at DLAR D2 is “Insulin Receptor peptide>Nervous fingers peptide>Cuticle peptide>Myospheroid peptide>Abelson peptide”. The peptide preference result on PTP99A D2 is “Nervous fingers peptide>Abelson peptide>Cuticle peptide>Myospheroid peptide>Insulin receptor peptide”.
